{
  "source": "patent US6274568A",
  "about": "“Compounds for altering cell surface sialic acids and methods of use therefor” (priority 1999, dated 2001)",
  "key": {"NG108-15 cells [1]": {"system": "NG108-15 cells", "assay": "Uptake of mannosamine precursors and conversion to sialic acids (precursor pool, gangliosides, glycoproteins) in NG108-15 cells, HPLC", "type": "cell-based, mouse neuroblastoma/rat glioma hybrid", "procedure": "(§1) Cells were harvested using hypertonic Ca^2+ - and Mg^2+ -free phosphate-buffered saline containing 1 mM EDTA, collected by centrifugation, and homogenized in ice-cold water using a Potter-Elvehjem glass/Teflon homogenizer. Methanol (2.6 volumes) was added, the suspension mixed and brought to ambient temperature, then chloroform (1.3 volumes, based on the original homogenate) was added and the suspension mixed vigorously. The suspension was centrifuged 30 min at 2,000×g. After collecting the supernatant, the pellet (containing precipitated proteins) was resuspended in water or concentrated ammonium hydroxide and a portion was used for protein assay (BCA, Pierce, Rockford, Ill.). The supernatant was partitioned by adjusting the chloroform-methanol-water ratio to 4:8:5.6 by addition of water, mixing thoroughly, and centrifuging as above. The upper phase was collected and a portion was subjected to reverse phase chromatography, using Sep-Pak C18 cartridges (Waters, Milford, Mass.), to isolate gangliosides (Schnaar, Methods Enzymol. 230:371, 1994).\n(§2) To quantify and identify sialic acids, a portion of resolublized protein, organic/aqueous soluble pool, or reverse-phase purified gangliosides was evaporated to dryness in a 500-μl polypropylene tube and 20 μl of 0.1 M HCl/0.25 M NaCl was added. One Ampliwax bead (Perkin Elmer Corp, Foster City, Calif.) per reaction was added to block evaporation, and the sample hydrolyzed for 3 h at 80° C. Released sialic acids were analyzed by injecting an aliquot (1-10 μl) onto a Dionex high pressure liquid chromatography system (Dionex Corporation, Sunnyvale, Calif.) using a HPIC-AS6 column and a pulsed amperometric detector. Elution solutions were: A, 0.75 mM NaOH; B, 200 mM NaOH; and C, 400 mM sodium acetate in 50 mM NaOH. NeuAc and NeuPr were resolved by elution with 40% A, 50% B, 10% C for 15 min at 1 ml/min. NeuGc was resolved in separate injections using step gradient elution: 0-1.8 min, 18% A, 50% B, 32% C; 2-10 min, 40% B, 60% C. Sialic acids were identified by comparison of their elution time with those of standard NeuAc, NeuPr and NeuGc and were quantified in comparison to a standard curve of commercial NeuAc (for NeuAc and NeuPr) or NeuGc.\n(§3) To confirm that the quantified peaks represented sialic acids, 10 μl of acid hydrolysates were treated with 1 μl of 1 M sodium phosphate (pH 7.2) and 10 μl of 0.1 M NaOH. Neutralized samples were incubated at 37° C. for 2 h with or without 0.9 U of N-acetylneuraminic acid aldolase (Sigma), 32 μM NADH and 0.1 μg lactate dehydrogenase. Sialic acid content in the ganglioside and glycoprotein fractions is expressed per mg of total cell protein. Precursor pool sialic acid (sialic acid plus CMP-sialic acid) was calculated by subtracting the ganglioside value from the organic/aqueous pool value, both expressed per mg of cell protein.\nSialic acid is biosynthesized from the precursor sugar N-acetylmannosamine (FIG. 2). In the present invention, sialic acids are converted on live neuronal cells from NeuAc, which is a key determinant for MAG binding, to NeuGc, which is non-permissive for MAG binding. A potential NeuGc precursor, N-glycolylmannosamine monoacetate (ManNGcMA, FIG. 1, R1 =H) was tested for its ability to generate altered sialic acids in neuronal and non-neuronal cells. N-propanoylmannosamine (ManNPr) and other N-acyl mannosamine derivatives have been used to modify glycoprotein associated sialic acids to the corresponding N-acylneuraminic acid. N-propanoyl-mannosamine (ManNPr), was used as a positive control. […] Cell pellets were fractioned into lipid associated, protein associated, and intracellular (lipid and cytoplasmic which may consist of oligosaccharide-bound, free, or CMP-activated sialic acid) sialic acids and hydrolyzed to release sialic acid. The hydrolyzed samples were then analyzed by HPLC to determine sialic acid content. […]"}, "Jurkat cells [2]": {"system": "Jurkat cells", "assay": "Uptake of mannosamine precursors and conversion to sialic acids in Jurkat cells, HPLC", "type": "cell-based, human", "conditions": "20 mM precursor, 48 h", "procedure": "as §1, §2, §3\nSialic acid is biosynthesized from the precursor sugar N-acetylmannosamine (FIG. 2). In the present invention, sialic acids are converted on live neuronal cells from NeuAc, which is a key determinant for MAG binding, to NeuGc, which is non-permissive for MAG binding. A potential NeuGc precursor, N-glycolylmannosamine monoacetate (ManNGcMA, FIG. 1, R1 =H) was tested for its ability to generate altered sialic acids in neuronal and non-neuronal cells. N-propanoylmannosamine (ManNPr) and other N-acyl mannosamine derivatives have been used to modify glycoprotein associated sialic acids to the corresponding N-acylneuraminic acid. N-propanoyl-mannosamine (ManNPr), was used as a positive control. Jurkat human lymphoma cells and NG108-15 cells (rodent neuroblastoma/glioma hybrid cells) were incubated in 20 mM synthetic precursor or control precursor (N-acetylmannosamine, ManNAc) for 48 h, then harvested. Cell pellets were fractioned into lipid associated, protein associated, and intracellular (lipid and cytoplasmic which may consist of oligosaccharide-bound, free, or CMP-activated sialic acid) sialic acids and hydrolyzed to release sialic acid. […]"}, "Jurkat cells [3]": {"system": "Jurkat cells", "assay": "Morphology and viability of precursor-treated Jurkat cells", "type": "cell-based, human", "experimental": "Jurkat cells were maintained in RPMI Medium 1640 (Gibco Life Technologies, Gaithersburg, Md.) supplemented with 10% fetal bovine serum. Both cell types were cultured at 37° C. in a humidified atmosphere of 90% air/10% CO2. For treatment with sialic acid precursors, mannosamine derivatives were diluted into the appropriate medium and filter sterilized. The growth medium was then replaced and cells were cultured in the presence of the precursor for 24-144 h."}, "NG108-15 cells [4]": {"system": "NG108-15 cells", "experimental": "Cell growth rates were determined in control cultures (.box-solid.), in cultures treated with 0.08 mM (.circle-solid.), 0.25 mM (.smallcircle.), or 1 mM (.quadrature.) ManNGcPA, and in cultures treated with 0.25 mM (.tangle-solidup.) or 1 mM (Δ) glucose pentaacetate.\nNG108-15 cells were maintained in Dulbecco's modified Eagle's medium (high glucose formulation) containing 5% iron-enriched calf serum, 100 μM hypoxanthine, 16 μM thymidine, and 5 μM aminopterin. […] Both cell types were cultured at 37° C. in a humidified atmosphere of 90% air/10% CO2. For treatment with sialic acid precursors, mannosamine derivatives were diluted into the appropriate medium and filter sterilized. […] In experiments testing ManNGcPA, all cells (control and experimental) were grown in the presence of 0.5% (v/v) DMSO, the carrier for ManNGcPA."}, "sialoadhesin": {"system": "sialoadhesin", "conditions": "cited from earlier work"}, "[5]": {"system": "myelin-associated glycoprotein (MAG)", "conditions": "cited from earlier work"}, "NG108-15 cells [6]": {"system": "NG108-15 cells", "conditions": "cited from earlier work"}, "[7]": {"conditions": "NG108-15, 20 mM precursor, 48 h"}},
  "note": "“Also recorded” adds a separate entry of the source.",
  "data": [
    {"molecule": "CCC(=O)N[C@@H]1C(O)O[C@H](CO)[C@@H](O)[C@@H]1O", "note": "(stereo partly shown) [ManNPr, N-Propanoylmannosamine, reference compound]", "values": [
      {"measurement": "incorporation into gangliosides and glycoproteins as NeuPr", "setting": "NG108-15 cells [1]", "result": "efficiently incorporated"},
      {"measurement": "increase in intracellular sialic acid (precursor pool)", "setting": "NG108-15 cells [1]; 20 mM precursor, 48 h", "result": 4, "unit": "fold"},
      {"measurement": "increase in total glycoprotein sialic acid", "setting": "NG108-15 cells [1]; 20 mM precursor, 48 h", "result": "≈ 1.4 fold"},
      {"measurement": "sialic acid precursor pool as NeuPr", "setting": "NG108-15 cells [1]; 20 mM precursor, 48 h", "result": "> 95", "unit": "%"},
      {"measurement": "ganglioside (lipid associated) sialic acid in the form of NeuPr", "setting": "NG108-15 cells [1]; [7]", "result": "70% and ≈ 70%"},
      {"measurement": "intracellular sialic acid pool as NeuPr", "setting": "NG108-15 cells [1]; [7]", "result": "composed predominantly"},
      {"measurement": "levels of intracellular sialic acid", "setting": "NG108-15 cells [1]; [7]", "result": "high levels"},
      {"measurement": "size of the ganglioside pool", "setting": "NG108-15 cells [1]; [7]", "result": "remained relatively constant"},
      {"measurement": "levels of intracellular sialic acid", "setting": "NG108-15 cells [1]; NG108-15, 20 mM precursor, 48 h, listed as N-propanoylmannosamine", "result": "high levels of intracellular sialic acid similar to that observed with N-acetylmannosamine treatment"},
      {"measurement": "glycoprotein associated sialic acid in the form of NeuPr", "setting": "Jurkat cells [2]", "result": "≈ 50%"},
      {"measurement": "intracellular sialic acid pool as NeuPr", "setting": "Jurkat cells [2]", "result": "composed predominantly"},
      {"measurement": "levels of intracellular sialic acid", "setting": "Jurkat cells [2]", "result": "high levels"},
      {"measurement": "lipid associated sialic acid in the form of NeuPr", "setting": "Jurkat cells [2]", "result": 33, "unit": "%"},
      {"measurement": "levels of intracellular sialic acid", "setting": "Jurkat cells [2]; listed as N-propanoylmannosamine", "result": "high levels of intracellular sialic acid similar to that observed with N-acetylmannosamine treatment"},
      {"measurement": "alteration of cell morphology or viability", "setting": "Jurkat cells [3]", "result": "did not seem to alter cell morphology or viability significantly"},
      {"measurement": "alteration of cell morphology or viability", "setting": "NG108-15 cells [4]", "result": "did not seem to alter cell morphology or viability significantly"}
    ]},
    {"molecule": "CC(=O)N[C@H]1[C@H]([C@H](O)[C@H](O)CO)OC(O)(C(=O)O)C[C@@H]1O", "note": "(stereo partly shown) [NeuAc, N-acetylneuraminic acid]", "values": [
      {"measurement": "sialoadhesin binding", "setting": "sialoadhesin", "result": "MAG and sialoadhesin bind NeuAc"},
      {"measurement": "support of MAG binding / recognition", "setting": "[5]", "result": "support MAG binding; also recorded: MAG and sialoadhesin bind NeuAc"}
    ]},
    {"molecule": "MAG: Myelin associated glycoprotein (MAG), a sialic acid binding lectin and member of the siglec family (protein, UniProt P20916 20-626, looked up) Myelin-associated glycoprotein: GHWGAWMPSSISAFEGTCVSIPCRFDFPDELRPAVVHGVWYFNSPYPKNYPPVVFKSRTQVVHESFQGRSRLLGDLGLRNCTLLLSNVSPELGGKYYFRGDLGGYNQYTFSEHSVLDIVNTPNIVVPPEVVAGTEVEVSCMVPDNCPELRPELSWLGHEGLGEPAVLGRLREDEGTWVQVSLLHFVPTREANGHRLGCQASFPNTTLQFEGYASMDVKYPPVIVEMNSSVEAIEGSHVSLLCGADSNPPPLLTWMRDGTVLREAVAESLLLELEEVTPAEDGVYACLAENAYGQDNRTVGLSVMYAPWKPTVNGTMVAVEGETVSILCSTQSNPDPILTIFKEKQILSTVIYESELQLELPAVSPEDDGEYWCVAENQYGQRATAFNLSVEFAPVLLLESHCAAARDTVQCLCVVKSNPEPSVAFELPSRNVTVNESEREFVYSERSGLVLTSILTLRGQAQAPPRVICTARNLYGAKSLELPFQGAHRLMWAKIGPVGAVVAFAILIAIVCYITQTRRKKNVTESPSFSAGDNPPVLFSSDFRISGAPEKYESERRLGSERRLLGLRGEPPELDLSYSHSDLGKRPTKDSYTLTEELAEYAEIRVK", "values": [
      {"measurement": "neurite outgrowth from NG108-15 cells", "setting": "NG108-15 cells [6]", "result": "inhibited"}
    ]}
  ]
}
